Values quoted from earlier work in PMC6525002 (Cancer Management and Research, 2019).

Tests used:
patients with NSCLC = conditions: clinical trials; cited from earlier work
[1] = test system: NSCLC patients with EGFR mutations; conditions: cited from earlier work
[2] = cited from earlier work

Row | Compound | frequency of diarrhea (patients with NSCLC) | response rates on brain metastases [1] | time to Cmax ([2]; cancer patients, post-dose) [h] | inter-patient variability of exposure ([2]; post single-dose exposure) [fold]
1 | CN(C)C/C=C/C(=O)Nc1cc2c(Nc3ccc(F)c(Cl)c3)ncnc2cc1O[C@H]1CCOC1 [afitinib] | 87.0% | – | – | –
2 | C#Cc1cccc(Nc2ncnc3cc(OCCOC)c(OCCOC)cc23)c1 [erlotinib] | 40.0–67.9% | 60–80% | – | –
3 | COc1cc2ncnc(Nc3ccc(F)c(Cl)c3)c2cc1OCCCN1CCOCC1 [gefitinib] | – | – | 3 | 1.5
